Experimental data reported in patent US8575210B2, “Use of indole derivatives as NURR-1 activators for treating parkinson's disease” (Laboratoires Fournier SA, priority 2008, dated 2013).
pEC50: −log10 of the molar value.

What was measured:
[1] = system: mice treated with 1-methyl-4-phenyl-1,2,3,6-tetrahydropyridine (MPTP); assay: Neuroprotection in MPTP-treated mice, striatal dopamine; type: in vivo, male C57BL6/J mice; settings: oral, twice daily for 11 days; MPTP 20 or 25 mg/kg i.p. for 5 days; FIGS. 1 to 3
Description: The compound of Example 2 was tested on a model of mice treated with 1-methyl-4-phenyl-1,2,3,6-tetrahydropyridine (MPTP), in order to confirm its potential activity. MPTP is a neurotoxin which gives rise to permanent symptoms of Parkinson's disease by destroying certains neurons in the substantia nigra of the brain. The protocol used was as follows.
Male C57BL6/J mice, aged 10-12 weeks at the beginning of the studies, were divided into groups of 8 animals. The compound was administered orally and twice daily for 11 days in total. Administration was commenced 3 days before treatment with the MPTP toxin at 20 or 25 mg/kg. MPTP was administered once daily by intraperitoneal injection for 5 days. The administration of the test compound was continued for 3 days after the treatment with MPTP. One group of mice received the vehicle alone (0.5% methylcellulose solution). The animals were euthanized after the final gavage, and the striatum was removed. The dopamine was extracted from the striatum, and the amount of dopamine (DA), expressed in ng per g of striatum (mean±SEM), was measured by high-performance liquid chromatography (HPLC) with electrochemical detection.
The results obtained were reported in attached FIGS. 1 to 3.

[2] = biological target: T1, hNurr1_RXRγFL (NURR-1/RXRγ heterodimer) (Homo sapiens, UniProt P48443); assay: Transactivation assay, NURR-1-Gal4/RXRγ luciferase reporter in Cos-7 cells; type: cell-based; settings: for Emax: COS-7, level of induction relative to XCT0135908 at 2×10^-5 M = 100%, read-out: Eff hNurr1_RXRγFL (efficacy relative to the reference XCT0135908); for pEC50: Cos-7 cells, Gal4 luciferase reporter
T1 construct: EC50 hNurr1_RXRγFL; other: Cos-7 cells, Gal4 luciferase reporter; other: level of induction relative to XCT0135908 at; hNurr1_RXRγFL
Description: (§1) To start with, using an in vitro assay, the capacity of the compounds according to the invention to behave as an activator of the heterodimers formed by the NURR-1 nuclear receptor and the RXR nuclear receptors was measured.
(§2) A transactivation assay was used as a primary screening test. Cos-7 cells were co-transfected with a plasmid expressing a chimera of the human receptor NURR-1-Gal4, a plasmid expressing the RXR human receptor (RXRα or RXRγ receptor) and a reporter plasmid 5Gal4pGL3-TK-Luc. The transfections were carried out using a chemical agent (Jet PEI).
(§3) The transfected cells were distributed in 384-well plates and left to stand for 24 hours.
(§4) After 24 hours, the culture medium was changed. The test products were added (final concentration between 10^−4 and 3.10^−10 M) in the culture medium. After incubation overnight, the expression of luciferase was measured after addition of “SteadyGlo” in accordance with the manufacturer's (Promega) instructions.
(§5) 4-[[6-Methyl-2-phenyl-5-(2-propenyl)-4-pyrimidinyl]amino]benzoic acid (called XCT0135908) at 2×10^−5 M (RXR agonist) was used as reference.
(§6) The levels of induction were calculated in relation to the basal activity of each heterodimer. The results were expressed as a percentage of the level of induction relative to the level of induction obtained with the reference (the level of induction of the reference is arbitrarily equal to 100%).

[3] = Cerebral and plasma pharmacokinetic profile after oral administration in mice; type: in vivo, male C57Bl6 mouse; settings: oral administration 10 mg/kg in mice; for Kp: male, C57Bl6, mouse, brain/plasma, read-out: Ratio AUCbrain/AUCplasma; for AUCbrain: AUC0-t, up to 8 h
Description: The protocol used was as follows:
Male C57Bl6 mice (25-30 g) from Janvier, Le Genest-St-Isle, France, were used for this study (12 mice per dose).
The animals were fed with standard rodent feed (Purina Mills, St. Louis, Mo.), and were placed in cages and subjected to 12 h/12 h light/dark cycles, the room temperature being maintained at 22±2° C. and the humidity level at 55±10%.
The mice were not fasted before administration. Water was supplied ad libitum throughout the study.
The test compound was administered orally at 10 mg/kg.
For oral administration at 10 mg/kg, the animals were fed by gavage with 10 mL/kg of a suspension of the test compound, prepared in 1% methylcellulose 400 cp.
The animals were sacrificed under anaesthesia at times 15 min, 30 min, 1 h, 3 h, 6 h and 8 h after gavage.
At each time, and on each sacrificed animal, the blood was collected and the brain was removed.
1 mL of blood collected in 1.5 mL tubes containing 20 μL of evaporated anticoagulant (solution of sodium heparinate at 1000 UI/mL) was centrifuged at 4500 g for 3 min to give approximately 400 μL of plasma. The plasma was divided into 2 aliquots of 200 μL, which were stored at −20° C. until extraction by protein precipitation, followed by analysis by liquid chromatography coupled with tandem mass spectrometry (LC-MS/MS) for the quantification of the test compound.
Immediately after their removal, the brains were plunged into liquid nitrogen and then stored at −20° C. for analysis. The brains were subsequently ground in the presence of aqueous/organic solvent mixture to give a homogenate. These homogenates were subsequently centrifuged and the test compound was extracted from the resulting supernatant, by liquid-liquid extraction, and then quantified by LC-MS/MS.
The pharmacokinetic parameters were determined on the basis of a non-compartmental approach in Excel. The area under the curve (AUC0-t) was determined by the linear trapezoidal method.

[4] = biological target: T2, hNurr1_RXRαFL (NURR-1/RXRα heterodimer) (Homo sapiens, UniProt P19793); assay: Transactivation assay, NURR-1-Gal4/RXRα luciferase reporter in Cos-7 cells; type: cell-based; settings: for Emax: COS-7, level of induction relative to XCT0135908 at 2×10^-5 M = 100%, read-out: Eff hNurr1_RXRαFL (efficacy relative to the reference XCT0135908); for pEC50: Cos-7 cells, Gal4 luciferase reporter
T2 construct: hNurr1_RXRαFL
Description: as §1, §2, §3, §4, §5, §6

T1 sequence (P48443 whole entry, the tested form may be a part): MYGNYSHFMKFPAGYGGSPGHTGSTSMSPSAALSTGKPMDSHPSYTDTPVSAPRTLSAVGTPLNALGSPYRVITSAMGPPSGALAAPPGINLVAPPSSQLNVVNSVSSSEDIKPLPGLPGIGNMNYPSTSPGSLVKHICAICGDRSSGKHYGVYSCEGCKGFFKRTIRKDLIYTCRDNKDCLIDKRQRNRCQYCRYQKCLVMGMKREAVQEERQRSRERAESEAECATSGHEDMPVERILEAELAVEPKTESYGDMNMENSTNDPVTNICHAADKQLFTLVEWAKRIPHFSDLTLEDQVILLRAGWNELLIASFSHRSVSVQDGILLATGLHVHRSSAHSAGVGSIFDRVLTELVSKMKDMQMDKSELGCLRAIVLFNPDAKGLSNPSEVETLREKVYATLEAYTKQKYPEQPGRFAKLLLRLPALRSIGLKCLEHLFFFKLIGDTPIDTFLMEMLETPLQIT
T1 sequence (P43354 328-598 partner): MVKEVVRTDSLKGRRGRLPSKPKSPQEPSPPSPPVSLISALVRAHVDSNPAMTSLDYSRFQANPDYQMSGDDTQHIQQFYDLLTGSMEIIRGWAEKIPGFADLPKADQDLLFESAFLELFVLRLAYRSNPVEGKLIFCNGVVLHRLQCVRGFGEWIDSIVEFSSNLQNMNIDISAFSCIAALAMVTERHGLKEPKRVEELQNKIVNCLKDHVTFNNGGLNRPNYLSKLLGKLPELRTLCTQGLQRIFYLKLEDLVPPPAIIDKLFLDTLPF
T2 sequence (P43354 328-598): as the sequence (P43354 328-598 partner) above
T2 sequence (P19793 whole entry, the tested form may be a part): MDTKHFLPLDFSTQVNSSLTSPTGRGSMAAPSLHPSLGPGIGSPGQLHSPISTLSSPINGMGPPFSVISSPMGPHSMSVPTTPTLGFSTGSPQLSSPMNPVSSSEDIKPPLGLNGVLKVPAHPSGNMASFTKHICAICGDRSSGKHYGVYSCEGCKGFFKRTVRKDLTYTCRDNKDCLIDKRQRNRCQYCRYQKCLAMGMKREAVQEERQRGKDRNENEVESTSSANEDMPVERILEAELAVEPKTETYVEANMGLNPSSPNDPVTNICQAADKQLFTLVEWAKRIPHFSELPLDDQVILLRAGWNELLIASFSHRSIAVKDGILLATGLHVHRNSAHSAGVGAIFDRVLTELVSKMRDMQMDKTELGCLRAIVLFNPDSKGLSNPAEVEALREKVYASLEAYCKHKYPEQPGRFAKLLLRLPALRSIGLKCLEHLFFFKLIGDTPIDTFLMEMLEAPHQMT

Row | Emax [2] | pEC50 [2] | Kp [3] | AUCbrain [3] | Emax [4] | pEC50 [4] | Structure (SMILES) | Effect on MPTP-induced reduction of dopamine level in the striatum [1]
1 | 79% | 6.95 | 0.67 | 3318 | 86% | 7.14 | CC(C)c1cccc(S(=O)(=O)n2c(CCCC(=O)O)cc3cc(C(F)(F)F)ccc32)c1 [Example 2, 1-[[3-(1-Methylethyl)phenyl]sulphonyl]-5-(trifluoromethyl)-1H-indole-2-butanoic acid] | reduce, in a dose-dependent way, the action of MPTP
2 | 70% | 7.70 | 0.87 | 2371 | 100% | 7.59 | CC(C)(C)c1cccc(S(=O)(=O)n2c(CCCC(=O)O)cc3cc(C(F)(F)F)ccc32)c1 [Example 8, 1-[[3-(1,1-Dimethylethyl)phenyl]sulphonyl]-5-(trifluoromethyl)-1H-indole-2-butanoic acid] | reduce, in a dose-dependent way, the action of MPTP
3 | 88% | 7.11 | 0.8 | 1689 | 104% | 7.26 | CC(C)(C)c1cccc(S(=O)(=O)n2c(CCCCC(=O)O)cc3cc(C(F)(F)F)ccc32)c1 [Example 10, 1-[[3-(1,1-Dimethylethyl)phenyl]sulphonyl]-5-(trifluoromethyl)-1H-indole-2-pentanoic acid] | reduce, in a dose-dependent way, the action of MPTP
